Literature values as cited in patent US10799486B2 (NORTIC HOLDINGS INC., priority 2016, dated 2020).

Assays:
[1] = oral administration
[2] = nimodipine-treated subarachnoid hemorrhage (SAH) patients

COCCOC(=O)C1=C(C)NC(C)=C(C(=O)OC(C)C)C1c1cccc([N+](=O)[O-])c1 (stereo not drawn) [nimodipine, isopropyl 2-methoxyethyl 1,4-dihydro-2,6-dimethyl-4-(m-nitrophenyl)-3,5-pyridinedicarboxylate]
half-life equivalent to earlier elimination rates ([1]; man): 1 to 2 h | Cmax in patients with hepatic cirrhosis versus normal ([1]; hepatic cirrhosis): approximately double that in normal | concentration detected in the cerebrospinal fluid [2]: ≤ 12.5 ng/mL
